Experimental data from US20220351806A1, “Biomarker Panels for Guiding Dysregulated Host Response Therapy” (Endpoint Health Inc., priority 2019, published 2022).

Test system: sepsis patients
Assay: VANISH trial survival analysis, hydrocortisone vs placebo, by patient subtype classifier
Assay type: in vivo, human
Parameters: mortality reduction in the placebo group in comparison to the hydrocortisone group / Mortality rate: concentration or dose not given beside the values
Settings: for Mortality reduction: Hydro vs Placebo; for hydro_alive / hydro_dead / mr: SS.B2 Model; for mr: 28-day mortality reduction hydro vs placebo; for Alive / Dead / Mortality rate / Survival rate: Hydro group
From the text: The test expression data from each trial were normalized by the platform normalization matrix described above^13 so that the test data were more consistent with the training data. The classifiers (e.g., the Full Model, the SS Model, the S Model, and the P Model) were then applied to the normalized data such that the patients were classified into A, B, and C subtypes. […] Therefore, each sample in the target samples was normalized independently with the normalization matrix of the sample array platform.
Survival and mortality rates were calculated at day 28 because survival and mortality labels at other time points were not available. […] Binomial and Chi-squared with continuity correction tests were used to test for the significance of these differences.
In one example, previously identified subtypes of sepsis patients were used to tune the model to identify these type A and B patients. Two distinct sepsis response signatures (SRS1 and SRS2) were identified in five public studies (E-MTAB-4421, E-MTAB-4451, E-MTAB-5273, E-MTAB-5274, and E-MTAB-7581), where HumanHT-12 v4 BeadChip were used to generate the gene expression profiles of the patient samples. The processed data of those five studies were downloaded and processed using R programming language and software environment for statistical analysis (version 3.6.3). The Bioconductor annotation package, illuminaHumanv4.db (version 1.26.0), was used to annotate microarray probes and expression levels of genes were determined by each individual probe or mean of probes belonging to the same gene. In order to remove cohort biases, the Bioconductor package, limma (version 3.42.2), was used to remove batch effects. Using ss.b2 panel genes, subtype A, B, and C scores were calculated by geometric mean of up/down genes.
To build the classifier, we defined E-MTAB-4421, E-MTAB-4451, E-MTAB-5273, and E-MTAB-5274 as the training dataset and VANISH (E-MTAB-7581) as the testing dataset. We used features (subtype A, B, and C scores) and class labels (SRS1 vs SRS2) in the training dataset to build a machine-learned classifier based on support-vector machine (SVM) method. SVM is a supervised machine learning method for classification analysis. The algorithm finds a single or a set of hyperplanes that maximize the margin among subtype A, B, and C scores. In order to capture non-linear data, the kernel function was used. R package e1071 was used to build the SVM classifier with following parameters: method=“C-classification”, kernal=“radial”, gamma=0.1, and cost=10.
The accuracy of the classifiers was evaluated by Leave-One-Out (LOO) cross-validation over the training dataset. Also the classifier was applied to 117 controlled samples from VANISH trial.
In addition to the SVM-method, thresholds can be employed to scores in order to define A vs. B labels. […] Therefore we applied a heuristic threshold (threshold=0) to subtype A and B scores to classify SRS1-like and SRS2-like in VANISH: SRS2-like label was assigned to samples with subtype A score >0 and subtype B score <0 and SRS1-like label was assigned to the rest of samples.
Besides the heuristic threshold, we also derived the thresholds for subtype A and B scores using the training dataset. Same as the SVM method, we defined E-MTAB-4421, E-MTAB-4451, E-MTAB-5273, and E-MTAB-5274 as the training dataset and VANISH (E-MTAB-7581) as the testing dataset.

[1] = class A, A score cutoff 0.0000, B score cutoff 0.0000, accuracy in training set 0.74830, 76.07% of patients
[2] = class A, A score cutoff 0.0000, B score cutoff 0.0000, accuracy in training set 0.74830, 76.92% of patients
[3] = class A, A score cutoff 0.0000, B score cutoff 0.0000, accuracy in training set 0.75283, 76.92% of patients
[4] = class A, A score cutoff 0.0000, B score cutoff 0.0000, accuracy in training set 0.75283, 82.91% of patients
[5] = class A, A score cutoff 0.0000, B score cutoff 0.0000, accuracy in training set 0.76871, 62.39% of patients
[6] = class A, A score cutoff 0.0000, B score cutoff 0.0000, accuracy in training set 0.76871, 76.92% of patients
[7] = class A, A score cutoff −0.0406, B score cutoff 0.1067, accuracy in training set 0.79592, 58.12% of patients
[8] = class A, A score cutoff −0.0406, B score cutoff 0.1067, accuracy in training set 0.79592, 74.36% of patients
[9] = class A, A score cutoff −0.1277, B score cutoff 0.3630, accuracy in training set 0.83673, 60.68% of patients
[10] = class A, A score cutoff −0.1277, B score cutoff 0.3630, accuracy in training set 0.83673, 70.09% of patients
[11] = class A, A score cutoff −0.2664, B score cutoff 0.3179, accuracy in training set 0.82483, 58.12% of patients
[12] = class A, A score cutoff −0.2664, B score cutoff 0.3179, accuracy in training set 0.82483, 60.68% of patients
[13] = class B, A score cutoff 0.0000, B score cutoff 0.0000, accuracy in training set 0.74830, 23.08% of patients
[14] = class B, A score cutoff 0.0000, B score cutoff 0.0000, accuracy in training set 0.74830, 23.93% of patients
[15] = class B, A score cutoff 0.0000, B score cutoff 0.0000, accuracy in training set 0.75283, 17.09% of patients
[16] = class B, A score cutoff 0.0000, B score cutoff 0.0000, accuracy in training set 0.75283, 23.08% of patients
[17] = class B, A score cutoff 0.0000, B score cutoff 0.0000, accuracy in training set 0.76871, 23.08% of patients
[18] = class B, A score cutoff 0.0000, B score cutoff 0.0000, accuracy in training set 0.76871, 37.61% of patients
[19] = class B, A score cutoff −0.0406, B score cutoff 0.1067, accuracy in training set 0.79592, 25.64% of patients
[20] = class B, A score cutoff −0.0406, B score cutoff 0.1067, accuracy in training set 0.79592, 41.88% of patients
[21] = class B, A score cutoff −0.1277, B score cutoff 0.3630, accuracy in training set 0.83673, 29.91% of patients
[22] = class B, A score cutoff −0.2664, B score cutoff 0.3179, accuracy in training set 0.82483, 39.32% of patients
[23] = class B, A score cutoff −0.2664, B score cutoff 0.3179, accuracy in training set 0.82483, 41.88% of patients
[24] = VANISH trial, day 28, Full Model, Total
[25] = VANISH trial, day 28, Full Model, subtype A
[26] = VANISH trial, day 28, Full Model, subtype B

## C[C@]12CCC(=O)C=C1CC[C@@H]1[C@@H]2[C@@H](O)C[C@@]2(C)[C@H]1CC[C@]2(O)C(=O)CO [Hydro, hydrocortisone]
1-(lower/higher mortality rate), VANISH trial, day 28, Full Model, Total
  Mortality reduction: 33.0%
1-(lower/higher mortality rate), VANISH trial, day 28, Full Model, subtype A
  Mortality reduction: 64.6%
1-(lower/higher mortality rate), VANISH trial, day 28, Full Model, subtype B
  Mortality reduction: 35.2%
1-(lower/higher mortality rate), VANISH trial, day 28, Full Model, subtype C
  Mortality reduction: 56.8%
1-(lower/higher mortality rate), VANISH trial, day 28, Full Model, subtypes CA
  Mortality reduction: 60.6%
1-(lower/higher mortality rate), VANISH trial, day 28, P Model, Total
  Mortality reduction: 33.0%
1-(lower/higher mortality rate), VANISH trial, day 28, P Model, subtype A
  Mortality reduction: 77.6%
1-(lower/higher mortality rate), VANISH trial, day 28, P Model, subtype B
  Mortality reduction: 9.7%
1-(lower/higher mortality rate), VANISH trial, day 28, P Model, subtypes CA
  Mortality reduction: 56.5%
1-(lower/higher mortality rate), VANISH trial, day 28, SS Model, Total
  Mortality reduction: 33.0%
1-(lower/higher mortality rate), VANISH trial, day 28, SS Model, subtype A
  Mortality reduction: 86.0%
1-(lower/higher mortality rate), VANISH trial, day 28, SS Model, subtype B
  Mortality reduction: 20.0%
1-(lower/higher mortality rate), VANISH trial, day 28, SS Model, subtype C
  Mortality reduction: 4.0%
1-(lower/higher mortality rate), VANISH trial, day 28, SS Model, subtypes CA
  Mortality reduction: 42.2%
1-(lower/higher mortality rate), VANISH trial, day 28, SS.B2 Model (SVM), Total
  Mortality reduction: 33.0%
1-(lower/higher mortality rate), VANISH trial, day 28, SS.B2 Model (SVM), type A (SRS2-like)
  Mortality reduction: 77.3%
1-(lower/higher mortality rate), VANISH trial, day 28, SS.B2 Model (SVM), type B (SRS1-like)
  Mortality reduction: 24.2%
VANISH trial, day 28, S Model, subtype C
  Mortality reduction: Hydro
VANISH trial, day 28, S Model, subtypes CA
  Mortality reduction: Hydro
[1]
  hydro_alive: 29
  hydro_dead: 13
  mr: 3.8%
[2]
  hydro_alive: 29
  hydro_dead: 13
  mr: 5.8%
[3]
  hydro_alive: 29
  hydro_dead: 13
  mr: 5.8%
[4]
  hydro_alive: 32
  hydro_dead: 15
  mr: 12.3%
[5]
  hydro_alive: 21
  hydro_dead: 12
  mr: 3.8%
[6]
  hydro_alive: 29
  hydro_dead: 13
  mr: 5.8%
[7]
  hydro_alive: 21
  hydro_dead: 12
  mr: 2.1%
[8]
  hydro_alive: 29
  hydro_dead: 13
  mr: 0.5%
[9]
  hydro_alive: 25
  hydro_dead: 11
  mr: 17.7%
[10]
  hydro_alive: 28
  hydro_dead: 13
  mr: 0.0%
[11]
  hydro_alive: 23
  hydro_dead: 11
  mr: 15.4%
[12]
  hydro_alive: 24
  hydro_dead: 12
  mr: 10.3%
[13]
  hydro_alive: 7
  hydro_dead: 9
  mr: 83.8%
[14]
  hydro_alive: 7
  hydro_dead: 9
  mr: 85.2%
[15]
  hydro_alive: 4
  hydro_dead: 7
  mr: 82.5%
[16]
  hydro_alive: 7
  hydro_dead: 9
  mr: 83.8%
[17]
  hydro_alive: 7
  hydro_dead: 9
  mr: 83.8%
[18]
  hydro_alive: 15
  hydro_dead: 10
  mr: 86.8%
[19]
  hydro_alive: 7
  hydro_dead: 9
  mr: 87.3%
[20]
  hydro_alive: 15
  hydro_dead: 10
  mr: 79.2%
[21]
  hydro_alive: 8
  hydro_dead: 9
  mr: 79.0%
Class B, A score cutoff −0.1277, B score cutoff 0.3630, accuracy in training set 0.83673, 39.32% of patients
  mr: 83.3%
[22]
  hydro_alive: 12
  hydro_dead: 10
  mr: 81.7%
[23]
  hydro_alive: 13
  hydro_dead: 11
  mr: 82.5%
VANISH trial, 28-day, Type-A (SRS2-like) patients by SVM classifier on ss.b2 scores
  mortality reduction in the placebo group in comparison to the hydrocortisone group: 75.5%
[24]
  Alive: 36
  Dead: 22
  Mortality rate: 37.9%
  Survival rate: 62.1%
[25]
  Alive: 9
  Dead: 8
  Mortality rate: 47.1%
  Survival rate: 52.9%
[26]
  Alive: 16
  Dead: 6
  Mortality rate: 27.3%
  Survival rate: 72.7%
